How the values were obtained:
[1] = biological target: T1, human Werner helicase (WRN-BV08, amino acids 517-1235 with L1074F point mutation) (Homo sapiens, UniProt Q14191, L1074F); assay: ADP-Glo WRN helicase ATPase inhibition assay; type: biochemical; conditions: 0.15 nM WRN, 5 μM ATP, 0.1 nM DNA duplex; 15 minutes preincubation, 60 minutes at 25° C.; read-out: ADP-Glo_hWRN_IC50
T1 construct: [pFastBac1-WRN-(517-1235 L1074F)-TEV-8His]; 8xHis (C, cleaved yes); TEV cleavage site (ENLYFQG) (C); made in house; host or cells: Sf9 insect cells (baculovirus, pFastBac)
Description: Bovine skin gelatin (BSG), dimethyl sulfoxide (DMSO), Pluronic F-127 and tris(2-carboxyethyl)phosphine hydrochloride solution (TCEP) were purchased from Sigma-Aldrich (St. Louis, MO) at the highest level of purity possible. Bicine buffer solution was purchased from Alfa Aesar (Tewksbury, MA) and compound NSC-617145 was purchased from Tocris (Minneapolis, MN). DNA duplex was synthesized at BGI (Shenzhen, China) and was composed of strand 1 with the sequence 5′-[…]-3′ (SEQ ID NO.: 1) and strand 2 with the sequence 5′-[…]-3′ (SEQ ID NO.: 2). DNA strands were annealed by heating to 95° C. for 5 minutes followed by slow cooling to room temperature. Compounds in 100% DMSO (0.1 μl) were spotted into a 384-well white polystyrene Optiplate-384 (Perkin Elmer; Waltham, MA) assay plate using a LabCyte Echo 550 (Agilent; Santa Clara, CA). DMSO (0.1 μl) was added to columns 12, rows A-H and column 24, rows I-P for the maximum signal control. Compound NSC-617145 (0.1 μl) was added to columns 12, rows I-P and 24, rows A-H for the minimum signal control (100% inhibition). Compounds/DMSO were preincubated for 15 minutes at 25° C. with 5 μl 2×WRN (BV08), prepared as described below, in assay buffer containing 20 mM Bicine (pH=7.5), 1 mM MgCl2, 10 mM KCl, 0.1% Pluronic F-127, 0.005% BSG, 1 mM TCEP. The reaction was initiated by the addition of 5 μl 2× substrate mixture in assay buffer and incubated for 60 minutes at 25° C. The final concentrations of the assay components were 0.15 nM WRN, 5 μM ATP, and 0.1 nM DNA duplex. The final DMSO concentration was 1% and the reference compound concentration (NSC-617145) used for the minimal signal control was 20 μM. The reaction was stopped by the addition of the ADP-Glo Kit components (Promega; Madison, WI) as directed and the relative luminescence units (RLU) were read on an Envision 2104 (Perkin Elmer; Waltham, MA). % inhibition calculation:
Where RLU=relative luminescence units, sample=signal in sample well, and MIN and MAX are the respective minimum and maximum signal controls.
Four-Parameter IC50 Fit Equation:
Where top and bottom are normally allowed to float but may be fixed at 100 or 0 respectively in a 3-parameter fit. Y is the % inhibition and X is the compound concentration.
Molecular Biology and virus production. The DNA encoding human Werner helicase (Uniprot Q14191, amino acids 517-1235 with L1074F point mutation) was generated with codon-optimization for E. coli expression and subcloned into the pFastBac vector with a TEV cleavable 8×His tag (SEQ ID NO: 5) (WRN-BV08). The baculovirus from the expression plasmid WRN-BV08 was generated from transfection and amplification following the manufacturer's instructions.
Sf9 cells grown in SF900II media were infected with 1:200 WRN-BV08 P2 virus and incubated for protein expression for 72 h at 27° C. The WRN protein was purified using the following protocol. The cell pellets were thawed and resuspended in buffer A (50 mM Tris, pH 7.5, 500 mM NaCl, 1 mM TCEP, 10% Glycerol) supplemented with 0.5% CHAPS, 1 mM PMSF, […] Leupeptin, 1 μg/ml Pepstatin, and the Pierce Universal Nuclease and cocktail tablet. Cleared lysates were loaded onto a Ni Sepharose™ excel column and washed with buffer A and bound protein was eluted with buffer A supplemented with 300 mM imidazole. The eluted protein was dialyzed against buffer A and digested by His-tagged TEV (1:5 ratio) overnight at 4° C. ZnCl2 was added into the sample at final 15 μM before loading onto a second Ni Sepharose™ excel column. Untagged WRN protein was eluted from the column with buffer A supplemented with 20 mM imidazole, dialyzed overnight into buffer B (50 mM Tris, pH 7.5, 1 mM TCEP, 10% Glycerol) supplemented with 150 mM NaCl and loaded onto a Heparin column. Proteins were eluted with a step gradient of buffer B supplemented with 150 mM, 200 mM, 300 mM and 500 mM NaCl. […]

[2] = tested on: p21 induction in HCT 116 cells; assay: p21 induction in cells (in-cell western, p21/GAPDH ratio); type: cell-based; conditions: Homo sapiens; HCT 116 colon carcinoma cell line, 24 h compound incubation; percent activation vs internal reference WRN inhibitor; read-out: P21_EC50
Protocol: The colon carcinoma cell line HCT 116 was obtained from ATCC and cultured in growth medium consisting of Mccoy's 5A Medium (Gibco 16600108) supplemented with […] (Transgene FS201-02) and 100 units/mL penicillin-streptomycin (Gibco 15140122) and maintained at 37° C. under […]. On the day of seeding, 2,000 cells in 30 μL of culture media were plated per well to Poly-D-Lysine 384 Well Black Clear Plates (Biocoat 356663) and incubated overnight at 37° C. under 5% CO2. The following day, compounds were serially diluted in DMSO for a total of 11 test concentrations. The typical starting concentration of cpds was 10 μM with 2-fold dilutions. Next, 150 nL of diluted compound was added in duplicate to the assay plate, using an Echo 655 (Labcyte). The plate was centrifuged at 500 RPM for 1 min and then incubated at 37° C. under 5% CO2 for 24 h. After 24 h, medium was removed, and cells were fixed by adding 40 µL of 4% paraformaldehyde solution to each well and incubated for 20 min at room temperature. The plate was then washed 4 times with 100 μL per well of wash buffer (PBS with 0.1% Tween-20) using a microplate washer. Next, 30 μL of ice-cold methanol was added to each well and the plate was incubated at −20° C. for 10 min. The plate was washed 4 times with 100 μL per well of wash buffer by a microplate washer, then 30 μL per well of blocking buffer (Intercept PBS blocking buffer (LI-COR 927-70001) with 0.05% Tween-20) was added and the plate was incubated at room temperature with shaking for 2 h. Next, to each test well, 20 μL of primary antibody solution (p21 Waf1/CIP (12D1) Rabbit mAb (Cell Signaling Technologies 2947) diluted 1:1000 and GAPDH (D4C6R) Mouse mAb (Cell Signaling Technologies 97166) diluted 1:2000 in blocking buffer) was added and the plate was placed at 4° C., overnight. The following day, the plate was washed 5 times with 100 μL per well of wash buffer using a microplate washer for 5 min. 20 μL per well of secondary antibody (IRDye 680CW Goat anti-Mouse IgG (H+L) (LI-COR 926-68070) diluted 1: 2000 in Blocking Buffer and IRDye 800CW Goat anti-Rabbit IgG (H+L) (LI-COR 926-32211) diluted 1: 2000 in Blocking Buffer) was then added and the plate was stored for 2 h in the dark at room temperature with shaking. The plate was then washed 4 times with 100 μL per well of wash buffer again using a microplate washer. Finally, the p21 signal and the GAPDH signal were quantified using a LI-COR Odyssey CLx Imager machine reading at 800 nm and 700 nm, respectively. Each plate contained DMSO control (low control) and an internal reference WRN inhibitor (high control) respectively. For quantitation, the 800 nm/700 nm ratio was calculated for each well to give fold p21 induction and then percent activation for each compound well was calculated as follows (100×(ratio cpd well-ratio low control)/(ratio high control−ratio low control)). EC50 values for each compound were generated after non-linear regression curve fitting using commercially available software.

T1 sequence (Q14191 with tags, fused parts or gaps L1074F): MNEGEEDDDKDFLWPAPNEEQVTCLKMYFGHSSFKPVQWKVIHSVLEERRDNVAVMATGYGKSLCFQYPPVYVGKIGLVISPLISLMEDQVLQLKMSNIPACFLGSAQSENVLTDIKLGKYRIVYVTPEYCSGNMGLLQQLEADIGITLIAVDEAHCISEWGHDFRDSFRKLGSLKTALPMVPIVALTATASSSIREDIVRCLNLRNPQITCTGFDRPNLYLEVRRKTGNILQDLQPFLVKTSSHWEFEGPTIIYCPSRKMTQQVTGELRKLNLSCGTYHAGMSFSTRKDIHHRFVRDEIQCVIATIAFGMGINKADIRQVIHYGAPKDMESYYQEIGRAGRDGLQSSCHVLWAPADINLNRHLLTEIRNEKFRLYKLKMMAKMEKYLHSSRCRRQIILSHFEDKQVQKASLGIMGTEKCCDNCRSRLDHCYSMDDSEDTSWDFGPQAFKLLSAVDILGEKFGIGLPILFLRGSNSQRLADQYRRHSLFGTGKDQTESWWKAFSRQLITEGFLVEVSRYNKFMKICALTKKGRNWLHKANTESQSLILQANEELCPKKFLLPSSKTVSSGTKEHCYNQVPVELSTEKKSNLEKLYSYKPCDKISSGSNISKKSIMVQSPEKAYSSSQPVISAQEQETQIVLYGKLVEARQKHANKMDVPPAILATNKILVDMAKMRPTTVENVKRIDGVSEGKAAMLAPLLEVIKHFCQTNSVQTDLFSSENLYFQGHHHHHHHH

Structure (SMILES)	IC50 [1]	EC50 [2]
Cc1ncnc(C(=O)N2CCN(c3c4n(c5nn(C6CC6)nc5c3=O)[C@H](C(=O)Nc3ccc(C(F)(F)F)cc3Cl)C[C@H]4C)[C@H]3CC[C@@H]32)c1O (relative stereo) [Compound I-27, (6R*,8R**)-N-[2-chloro-4-(trifluoromethyl)phenyl]-2-cyclopropyl-5-[(1S,6S)-5-(5-hydroxy-6-methylpyrimidine-4-carbonyl)-2,5-diazabicyclo[4.2.0]octan-2-yl]-6-methyl-4-oxo-2H,4H,6H,7H,8H-[1,2,3]triazolo[4,5-e]indolizine-8-carboxamide]	≤ 5 nM	≤ 500 nM
Cc1ncnc(C(=O)N2CCN(c3c4n(c5nn(C6CC6)nc5c3=O)[C@@H](C(=O)Nc3ccc(C(F)(F)F)cc3Cl)C[C@@H]4C)[C@H]3CC[C@@H]32)c1O (relative stereo) [Compound I-28, (6R*,8R**)-N-[2-chloro-4-(trifluoromethyl)phenyl]-2-cyclopropyl-5-[(1S,6S)-5-(5-hydroxy-6-methylpyrimidine-4-carbonyl)-2,5-diazabicyclo[4.2.0]octan-2-yl]-6-methyl-4-oxo-2H,4H,6H,7H,8H-[1,2,3]triazolo[4,5-e]indolizine-8-carboxamide]	5 to 50 nM	500 to 2000 nM
COc1cc(-n2nc3c(=O)c(N4CCN(C(=O)c5ncnc(C)c5O)[C@H]5CC[C@@H]54)c4n(c3n2)[C@@H](C(=O)NC23CC(C5CC5)(C2)C3)C[C@@H]4C)ccn1 (single isomer, unassigned) [Compound I-1]	5 to 50 nM	≤ 500 nM
COc1cc(-n2nc3c(=O)c(N4CCN(C(=O)c5ncnc(C)c5O)[C@H]5CC[C@@H]54)c4n(c3n2)[C@@H](C(=O)NC23CC(C5CC5)(C2)C3)C[C@H]4C)ccn1 (single isomer, unassigned) [Compound I-2]	5 to 50 nM	≤ 500 nM
COc1cc(-n2nc3c(=O)c(N4CCN(C(=O)c5ncnc(C)c5O)[C@H]5CC[C@@H]54)c4n(c3n2)[C@H](C(=O)NC23CC(C5CC5)(C2)C3)C[C@H]4C)ccn1 (single isomer, unassigned) [Compound I-3]	50 to 100 nM	500 to 2000 nM
COc1cc(-n2nc3c(=O)c(N4CCN(C(=O)c5ncnc(C)c5O)[C@H]5CC[C@@H]54)c4n(c3n2)[C@H](C(=O)NC23CC(C5CC5)(C2)C3)C[C@@H]4C)ccn1 (single isomer, unassigned) [Compound I-4]	100 to 500 nM	> 5000 nM
COc1cc(-n2nc3c(=O)c(N4CCN(C(=O)c5ncnc(C)c5O)[C@H]5CC[C@@H]54)c4n(c3n2)[C@@H](C(=O)Nc2ccc(C(F)(F)F)cc2Cl)C[C@H]4C)ccn1 (single isomer, unassigned) [Compound I-5]	≤ 5 nM	≤ 500 nM
COc1cc(-n2nc3c(=O)c(N4CCN(C(=O)c5ncnc(C)c5O)[C@H]5CC[C@@H]54)c4n(c3n2)[C@H](C(=O)Nc2ccc(C(F)(F)F)cc2F)C[C@@H]4C)ccn1 (single isomer, unassigned) [Compound I-6]	≤ 5 nM	≤ 500 nM
Cc1cnc2c(n1)c(=O)c(N1CCN(C(=O)c3ncnc(C)c3O)[C@H]3CC[C@@H]31)c1n2[C@H](C(=O)Nc2ccc(C(F)(F)F)cc2Cl)C[C@@H]1C (single isomer, unassigned) [Compound I-7]	≤ 5 nM	≤ 500 nM
Cc1cnc2c(n1)c(=O)c(N1CCN(C(=O)c3ncnc(C)c3O)[C@H]3CC[C@@H]31)c1n2[C@@H](C(=O)Nc2ccc(C(F)(F)F)cc2Cl)C[C@H]1C (single isomer, unassigned) [Compound I-8]	100 to 500 nM	> 5000 nM
COc1cc(-n2nc3c(=O)c(N4CCN(C(=O)c5ncnc(C)c5O)[C@H]5CC[C@@H]54)c4n(c3n2)[C@H](C(=O)Nc2ccc(C(F)(F)F)cc2Cl)C[C@@H]4C)ccn1 (single isomer, unassigned) [Compound I-9]	100 to 500 nM	500 to 2000 nM
COc1cc(-n2nc3c(=O)c(N4CCN(C(=O)c5ncnc(C)c5O)[C@H]5CC[C@@H]54)c4n(c3n2)[C@@H](C(=O)Nc2ccc(C(F)(F)F)cc2F)C[C@H]4C)ccn1 (single isomer, unassigned) [Compound I-10]	100 to 500 nM	2000 to 5000 nM
COc1cc(-n2nc3c(=O)c(N4CCN(C(=O)c5ncnc(C)c5O)[C@H]5CC[C@@H]54)c4n(c3n2)[C@H](C(=O)Nc2ccc(C(F)(F)F)cc2Cl)C[C@H]4C)ccn1 (single isomer, unassigned) [Compound I-13]	≤ 5 nM	
Cc1nc2c(=O)c(N3CCN(C(=O)c4ncnc(C)c4O)[C@H]4CC[C@@H]43)c3n(c2nc1C)[C@@H](C(=O)Nc1ccc2c(c1Cl)OC(F)(F)O2)C[C@H]3C [Compound I-26, (7R,9R)—N-(4-chloro-2,2-difluoro-2H-1,3-benzodioxol-5-yl)-6-[(1S,6S)-5-(5-hydroxy-6-methylpyrimidine-4-carbonyl)-2,5-diazabicyclo[4.2.0]octan-2-yl]-2,3,7-trimethyl-5-oxo-5H,7H,8H,9H-pyrazino[2,3-e]indolizine-9-carboxamide]		≤ 500 nM
